Where two headings read alike, the source gives them in different places. *1 amine or outer side, *2 acyl side, *3 side chain or, on linkers, in order; H or OH if unused. Where a SMILES comes first, the peptide text is derived from it. Bridges are numbered along the chain shown (N, C = ends). [ ]: non-standard residue; d: D form. 2Nal = N[C@@H](Cc1ccc2ccccc2c1)C(=O)O; AEF = NCCOc1ccc(C[C@H](N)C(=O)O)cc1; X1 = O=C(Cc1ccc(CN[*:1])cc1)[*:2]; 3Pal = N[C@@H](Cc1cccnc1)C(=O)O; αMeL = CC(C)C[C@](C)(N)C(=O)O; Dab = NCC[C@H](N)C(=O)O; Sar = CNCC(=O)O

Series [1] in a line: Peptide stability in simulated intestinal fluid (SIF). It is filed as in vitro ADME. The following applies: for remaining at 1 h, 10 µM / remaining at 4 h, 10 µM: pig, simulated intestinal fluid (SIF) with porcine pancreatin. A digest of the protocol: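 Peptides were incubated at 37 °C with gentle shaking in pH 6.8 potassium phosphate SIF containing porcine pancreatin (10 g/L). Supernatants were analysed by LC-HRMS. Percent remaining at each timepoint, including 4 h, was calculated relative to time zero from absolute peak areas.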

In series [2] the target is IL-23 mediated STAT3 signalling (Homo sapiens, UniProt Q5VWK5). The experiment in a line: Functional inhibition of IL-23 mediated STAT3 signalling (phospho-STAT3 Tyr705 MSD, DB cells). Format: cell-based. Here is the method:
The ability of compounds to inhibit IL-23 mediated signalling was determined in the human-derived DB cell line (CRL-2289) (hereafter referred to as DB cells), which endogenously expresses the human IL-23R and human IL-12R β1 subunits. Upon binding of IL-23, the IL-23R forms a heterodimer signalling complex together with IL-12R β1, which through the JAK2/STAT3 pathway promotes phosphorylation of STAT3 to form phospho-STAT3. In the assay, the functional antagonism of IL-23 mediated phospho-STAT3 formation in DB cells by the compound is quantified using reagents capable of measuring the phosphorylation state of Tyr705 of STAT3 in the form of a phospho-STAT3 (Tyr705) MSD (Meso Scale Discovery) kit.
[…]. For compounds tested in this assay, the response was normalized relative to control values to calculate the IC50 and maximal inhibitory response from a concentration response curve of the compound in presence of a fixed concentration of human IL-23.
The assay procedure was as follows. DB cells were maintained in growth medium consisting of RPMI-1640 [Invitrogen 61870-010] supplemented with 10% V/V Foetal Bovine Serum (FBS) [(heat inactivated), Invitrogen 10270-106], and 1% V/V Penicillin-Streptomycin (Pen-Strep) Solution [Invitrogen 15140]. On the day of assay, cells were resuspended in Assay buffer consisting of RPMI-1640 [Invitrogen 61870-010] supplemented with 0.1 % w/V BSA [Sigma-Aldrich A9430] to a density of 7.5x10^6 cells/mL. Compounds to be tested for inhibition of hIL-23 mediated signalling were serially diluted in Assay buffer to 3X the final concentration. A solution of hIL-23 corresponding to 3X the EC80 of hIL-23 (1.7 nM) was also prepared in Assay buffer. To initiate the assay, 20 µL of DB cell suspension (corresponding to 150.000 cells/well) was added to the wells of a 96-well V-bottom Polypropylene plate [Corning 3363] followed by addition of 3X 20 µL of the diluted test compounds to separate wells. Following preincubation of the DB cells with inhibitor for 15 min in a cell incubator (37 °C, 5% CO2), 20 µL of the prepared 3X the EC80 of hIL-23 solution was added to each well and incubated for 90 min in a cell incubator (37 °C, 5% CO2). For some wells buffer only or IL-23 only corresponding to the EC80 was added to obtain readouts needed for normalization. To terminate the assay, the plate was spun at 1000 G for 5 min to pellet cells, the supernatant removed using an 8-channel manual pipette, and then added 50 µL/well Complete Lysis Buffer from the MSD STAT3 kit (Cat# K150SVD, Mesoscale) to the cell pellet. To completely lyse cells to release phospho-STAT3 for detection, the plate was shaken for 10 min at room temperature (500 rpm) sealed with aluminium foil and placed at -80 °C for a minimum of 15 min. Detection of the phospho-STAT3 level in the cell lysate from the individual wells was determined using the MSD STAT3 kit (Cat# K150SVD, Mesoscale) and read on a Meso QuickPlex SQ 120 plate reader (Mesoscale).
For data analysis raw data counts from the Meso QuickPlex SQ 120 plate reader were normalized relative to the response by the EC80 of hIL-23 alone (no compound added) and the buffer level. Compound potency (IC50) and maximal inhibitory response (% inhibition) were estimated by computer-aided curve fitting using a 4-parameter logistic (4PL) non-linear model. […]. Typically compounds with a low IC50 are desired. Typically compounds capable of completely inhibiting the IL23-induced response are desired. […]. Table 3-2: hIL-23 (pSTAT3) antagonist IC50 and % inhibition data

Series [3] is described as follows: Peptide stability in simulated gastric fluid (SGF). Format: in vitro ADME. The following applies: pig, simulated gastric fluid (SGF) with porcine pepsin, 37 °C, pH 1.2, porcine pepsin 3.2 g/L. A digest of the protocol:
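Peptide incubated at 37 °C with gentle shaking in SGF (NaCl, pH 1.2). Samples centrifuged, diluted and analysed by LC-HRMS; percent remaining at each timepoint from absolute peak areas relative to time zero, with 4 h as the reference point.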

[4] abbreviates: 37 °C, pH 6.8, porcine pancreatin 10 g/L, 10 µM.
The mark [5] stands for this setting: pH 6.8, Example 2 (Tables 2-1 to 2-4), intact peptide remaining after 4 h, read-out: SIF (% after 4 h).
Where [6] appears, read: Example 2 (Tables 2-1 to 2-4), read-out: IC50 (pSTAT3).
Setting [7] is: 4 h, 37 °C, pH 6.8, porcine pancreatin 10 g/L, 10 µM.

Chain of IL-23 mediated STAT3 signalling (Q5VWK5 24-629 limits assumed): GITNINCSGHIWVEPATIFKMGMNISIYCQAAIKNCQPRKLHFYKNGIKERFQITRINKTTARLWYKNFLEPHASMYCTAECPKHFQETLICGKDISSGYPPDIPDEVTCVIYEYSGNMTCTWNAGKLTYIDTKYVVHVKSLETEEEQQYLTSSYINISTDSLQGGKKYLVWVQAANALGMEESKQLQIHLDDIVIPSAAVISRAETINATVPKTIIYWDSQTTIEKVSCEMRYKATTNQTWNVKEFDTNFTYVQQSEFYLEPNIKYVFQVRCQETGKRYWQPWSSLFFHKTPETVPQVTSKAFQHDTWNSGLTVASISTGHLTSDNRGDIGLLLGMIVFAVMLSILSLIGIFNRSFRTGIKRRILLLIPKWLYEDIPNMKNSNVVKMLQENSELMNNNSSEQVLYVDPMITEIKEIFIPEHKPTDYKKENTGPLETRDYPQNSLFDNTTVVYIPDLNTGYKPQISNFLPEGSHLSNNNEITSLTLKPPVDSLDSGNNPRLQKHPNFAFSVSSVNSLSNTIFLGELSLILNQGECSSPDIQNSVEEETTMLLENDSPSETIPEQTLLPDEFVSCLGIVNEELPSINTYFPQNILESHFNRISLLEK

The term IC50 denotes the midpoint of a concentration-inhibition curve. With `CC(C)C[C@]1(C)NC(=O)[C@H](Cc2ccc3ccccc3c2)NC(=O)[C@H](Cc2ccc(OCCN)cc2)NC(=O)[C@@H]2CCNC(=O)CC[C@H](NC(=O)[C@H](CO)NC(=O)Cc3ccc(cc3)CNC(=O)CC[C@@H](C(=O)N[C@@H](CCN)C(=O)N[C@@H](Cc3c[nH]cn3)C(=O)N[C@@H](Cc3cccnc3)C(N)=O)NC1=O)C(=O)N[C@@H](Cc1c[nH]c3ccccc13)C(=O)N[C@@H](CCC(N)=O)C(=O)N2` [Compound 12, [4-Aminomethyl-phenylacetyl](1c)*SE(2c)WQ[Dab](2c)[Y(2-aminoethoxy)][2-Nal][2-Me-Leu]E(1c)[Dab]H[3-(3-Pyridyl)-Ala]-[NH2]] ([X1]SEWQ[Dab][AEF][2Nal][αMeL]E[Dab]H[3Pal]-NH2; lactam 3-6, N-10), the remaining at 1 h, 10 µM in series [1] (setting [4]) was 60%. For the same compound, the remaining at 4 h, 10 µM was 2% in series [1] (4 h, 37 °C, pH 6.8, porcine pancreatin 10 g/L, 10 µM, read-out: SIF (% remaining 4 h)) and 93% in series [3]. The IC50 in series [2] (Table 3-2, EC80 of hIL-23, read-out: hIL-23 (pSTAT3) antagonist IC50) was 3.5 nM.
As to `CC(C)C[C@]1(C)NC(=O)[C@H](Cc2ccc3ccccc3c2)NC(=O)[C@H](Cc2ccc(OCCN)cc2)NC(=O)[C@@H]2CCNC(=O)CC[C@H](NC(=O)[C@H](CO)NC(=O)Cc3ccc(cc3)CNC(=O)CC[C@@H](C(=O)N[C@@H](CCN)C(=O)N[C@@](C)(Cc3cccnc3)C(N)=O)NC1=O)C(=O)N[C@@H](Cc1c[nH]c3ccccc13)C(=O)N[C@@H](CCC(N)=O)C(=O)N2` [Compound 3, [4-Aminomethyl-phenylacetyl](1c)*SE(2c)WQ[Dab](2c)[Y(2-aminoethoxy)][2-Nal][2-Me-Leu]E(1c)[Dab][2-Me-3-(3-Pyridyl)-Ala]-[NH2]], the remaining at 4 h, 10 µM in series [1] (setting [5]) was 109%. The remaining at 1 h, 10 µM in series [1] (setting [4]) is 115%; in series [3] it was 99%. In addition, in series [2] (setting [6]), the 50% inhibitory concentration (IC50) came to 1.7 nM.
`CC(C)C[C@]1(C)NC(=O)[C@H](Cc2ccc3ccccc3c2)NC(=O)[C@H](Cc2ccc(OCCN)cc2)NC(=O)[C@@H]2CCNC(=O)CC[C@H](NC(=O)[C@H](CO)NC(=O)Cc3ccc(cc3)CNC(=O)CC[C@@H](C(=O)N[C@@H](CCN)C(=O)N[C@H](Cc3cccnc3)C(N)=O)NC1=O)C(=O)N[C@@H](Cc1c[nH]c3ccccc13)C(=O)N[C@@H](CCC(N)=O)C(=O)N2` [Compound 5, [4-Aminomethyl-phenylacetyl](1c)*SE(2c)WQ[Dab](2c)[Y(2-aminoethoxy)][2-Nal][2-Me-Leu]E(1c)[Dab][{d}3-(3-Pyridyl)-Ala]-[NH2]]: in series [1] (setting [7]), the “SIF (% remaining 4 h)” value is given as 41%. Also, the remaining at 4 h, 10 µM in series [1] (setting [5]) was 41%. For the same compound, in series [2] (setting [6]), the IC50 is 2.1 nM. For the same compound, in series [3], the remaining at 1 h, 10 µM was 99%.
On to `CC(C)C[C@]1(C)NC(=O)[C@H](Cc2ccc3ccccc3c2)NC(=O)[C@H](Cc2ccc(OCCN)cc2)NC(=O)[C@@H]2CCNC(=O)CC[C@H](NC(=O)[C@H](CO)NC(=O)Cc3ccc(cc3)CNC(=O)CC[C@@H](C(=O)N[C@@H](CCN)C(=O)N[C@@H](Cc3cccnc3)C(=O)N(C)CC(N)=O)NC1=O)C(=O)N[C@@H](Cc1c[nH]c3ccccc13)C(=O)N[C@@H](CCC(N)=O)C(=O)N2` [Compound 9, [4-Aminomethyl-phenylacetyl](1c)*SE(2c)WQ[Dab](2c)[Y(2-aminoethoxy)][2-Nal][2-Me-Leu]E(1c)[Dab][3-(3-Pyridyl)-Ala][Sar]-[NH2]] ([X1]SEWQ[Dab][AEF][2Nal][αMeL]E[Dab][3Pal][Sar]-NH2; lactam 3-6, N-10), for which the remaining at 4 h, 10 µM in series [1] (setting [5]) is 105%. Besides, the half-maximal inhibitory concentration (IC50) in series [2] (setting [6]) was found to be 0.025 nM. Moreover, the remaining at 1 h, 10 µM in series [3] is 96%.
With `CC(C)C[C@]1(C)NC(=O)[C@H](Cc2ccc3ccccc3c2)NC(=O)[C@H](Cc2ccc(OCCN)cc2)NC(=O)[C@@H]2CCNC(=O)CC[C@H](NC(=O)[C@H](CO)NC(=O)Cc3ccc(cc3)CNC(=O)CC[C@@H](C(=O)N[C@@H](CCN)C(=O)N[C@H](Cc3c[nH]cn3)C(N)=O)NC1=O)C(=O)N[C@@H](Cc1c[nH]c3ccccc13)C(=O)N[C@@H](CCC(N)=O)C(=O)N2` [Compound 13, [4-Aminomethyl-phenylacetyl](1c)*SE(2c)WQ[Dab](2c)[Y(2-aminoethoxy)][2-Nal][2-Me-Leu]E(1c)[Dab][{d}H]-[NH2]], the “SIF (% remaining 4 h)” value in series [1] (setting [7]) is 56%. For the same compound, the remaining at 4 h, 10 µM in series [1] (setting [5]) is 56%; in series [3] it was 78%. Moreover, the 50% inhibitory concentration (IC50) in series [2] (setting [6]) is 6.8 nM.

The values above are taken from patent publication EP4471049A1 (Zealand Pharma A/S, priority 2023, dated 2024).
